According to ChEMBL document CHEMBL4261636, “Design of Y2 Receptor Selective and Proteolytically Stable PYY3-36 Analogues” (J Med Chem, 2018):
Bridge positions count the residues as written; N and C are the ends. Square brackets hold non-standard residues; d marks the D form. Peptide text beside a SMILES is read from it. Ahx = NCCCCCC(=O)O

Legend:
[1] = target: T1, Neuropeptide Y receptor type 1 (Homo sapiens, UniProt P25929); assay: Displacement of [125I]-PYY(1 to 36 residues) from human Y1R expressed in BHK-21 cell membranes after 2 hrs by scintillation proximity assay
T1 sequence (P25929 whole entry): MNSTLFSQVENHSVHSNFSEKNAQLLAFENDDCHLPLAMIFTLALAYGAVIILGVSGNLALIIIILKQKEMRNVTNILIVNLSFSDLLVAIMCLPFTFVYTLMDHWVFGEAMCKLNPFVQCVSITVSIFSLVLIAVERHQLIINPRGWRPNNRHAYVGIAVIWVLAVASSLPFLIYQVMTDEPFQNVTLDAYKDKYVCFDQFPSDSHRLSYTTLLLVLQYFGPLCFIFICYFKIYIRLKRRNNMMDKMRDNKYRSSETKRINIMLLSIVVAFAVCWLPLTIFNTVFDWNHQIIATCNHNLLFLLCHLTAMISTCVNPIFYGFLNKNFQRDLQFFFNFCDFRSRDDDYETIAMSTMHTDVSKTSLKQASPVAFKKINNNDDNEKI

[2] = target: T2, Neuropeptide Y receptor type 2 (Homo sapiens, UniProt P49146); assay: Displacement of [125I]-PYY(1 to 36 residues) from human Y2R expressed in CHO cell membranes after 2 hrs by scintillation proximity assay
T2 sequence (P49146 whole entry): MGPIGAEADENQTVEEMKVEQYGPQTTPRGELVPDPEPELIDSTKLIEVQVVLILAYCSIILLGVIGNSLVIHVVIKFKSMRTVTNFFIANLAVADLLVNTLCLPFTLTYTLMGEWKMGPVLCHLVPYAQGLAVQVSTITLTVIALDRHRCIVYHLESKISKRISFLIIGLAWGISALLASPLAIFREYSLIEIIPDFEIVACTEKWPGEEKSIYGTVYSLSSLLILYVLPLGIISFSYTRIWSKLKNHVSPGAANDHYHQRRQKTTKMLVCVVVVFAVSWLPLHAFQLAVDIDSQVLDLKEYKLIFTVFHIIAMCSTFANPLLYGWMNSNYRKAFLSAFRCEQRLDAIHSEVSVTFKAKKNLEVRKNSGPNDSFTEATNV

[3] = target: T3, Neuropeptide Y receptor type 4 (Homo sapiens, UniProt P50391); assay: Displacement of [125I]-PP from human Y4R expressed in CHO-K1 cell membranes after 2 hrs by scintillation proximity assay
[4] = target: T4, Neuropeptide Y receptor type 5 (Homo sapiens, UniProt Q15761); assay: Displacement of [125I]-PYY(1 to 36 residues) from human Y5R expressed in HEK293 cell membranes after 2 hrs by scintillation proximity assay
T4 sequence (Q15761 whole entry): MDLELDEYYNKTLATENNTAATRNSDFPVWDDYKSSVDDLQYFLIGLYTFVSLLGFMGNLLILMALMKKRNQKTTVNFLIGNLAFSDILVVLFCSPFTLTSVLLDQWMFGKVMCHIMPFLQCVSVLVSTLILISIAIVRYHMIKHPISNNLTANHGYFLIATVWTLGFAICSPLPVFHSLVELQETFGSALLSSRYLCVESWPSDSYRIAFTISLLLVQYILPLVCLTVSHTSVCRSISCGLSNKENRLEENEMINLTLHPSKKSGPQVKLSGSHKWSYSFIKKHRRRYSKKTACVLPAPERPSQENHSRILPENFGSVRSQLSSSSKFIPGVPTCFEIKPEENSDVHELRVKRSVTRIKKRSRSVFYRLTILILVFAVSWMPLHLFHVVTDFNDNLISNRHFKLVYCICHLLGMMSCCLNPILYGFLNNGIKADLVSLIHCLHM

[5] = target: T1, Neuropeptide Y receptor type 1; assay: Activation of human Y1R expressed in HEK293 cells assessed as inhibition of isoproterenol-induced increase in intracellular cAMP levels by calcium 5 dye-based FLIPR assay; type: functional, cell-based; settings: for EC50: read-out: EC50; for pEC50: hek293
[6] = target: T2, Neuropeptide Y receptor type 2; assay: Activation of human Y2R expressed in HEK293 cells assessed as inhibition of isoproterenol-induced increase in intracellular cAMP levels by calcium 5 dye-based FLIPR assay; type: functional, cell-based; settings: read-out: EC50
[7] = target: T3, Neuropeptide Y receptor type 4; assay: Activation of human Y4R expressed in HEK293 cells assessed as inhibition of isoproterenol-induced increase in intracellular cAMP levels by calcium 5 dye-based FLIPR assay; type: functional, cell-based; settings: for pEC50: hek293
[8] = target: T4, Neuropeptide Y receptor type 5; assay: Activation of human Y5R expressed in HEK293 cells assessed as inhibition of isoproterenol-induced increase in intracellular cAMP levels by calcium 5 dye-based FLIPR assay; type: functional, cell-based
Homo sapiens [9] = species: Homo sapiens; assay: Selectivity ratio of Ki for human Y1R expressed in BHK-21 cell membranes to Ki for human Y2R expressed in CHO cell membranes; type: cell-based
Homo sapiens [10] = species: Homo sapiens; assay: Selectivity ratio of Ki for human Y4R expressed in CHO-K1 cell membranes to Ki for human Y2R expressed in CHO cell membranes; type: cell-based
Homo sapiens [11] = species: Homo sapiens; assay: Selectivity ratio of Ki for human Y5R expressed in HEK293 cell membranes to Ki for human Y2R expressed in CHO cell membranes; type: cell-based

T3 sequence (P50391 whole entry, the tested form may be a part): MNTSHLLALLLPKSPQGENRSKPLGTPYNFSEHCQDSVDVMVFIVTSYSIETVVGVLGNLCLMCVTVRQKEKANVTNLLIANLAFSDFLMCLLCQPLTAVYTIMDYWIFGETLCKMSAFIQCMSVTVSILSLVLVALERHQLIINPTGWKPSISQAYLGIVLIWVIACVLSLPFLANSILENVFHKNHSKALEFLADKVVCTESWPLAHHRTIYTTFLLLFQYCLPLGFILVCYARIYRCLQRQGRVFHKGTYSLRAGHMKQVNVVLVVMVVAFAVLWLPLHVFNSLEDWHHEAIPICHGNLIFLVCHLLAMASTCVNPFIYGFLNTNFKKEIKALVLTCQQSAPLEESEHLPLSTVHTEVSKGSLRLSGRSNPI

Row | SMILES | Ki [1] [nM] | Ki [2] [nM] | Ki [3] [nM] | Ki [4] [nM] | EC50 [5] [nM] | EC50 [6] [nM] | EC50 [7] [nM] | EC50 [8] [nM] | pEC50 [5] | pEC50 [7] | pKi ([1]; bhk-21) | Ratio Ki (Homo sapiens [9]) | Ratio Ki (Homo sapiens [10]) | Ratio Ki (Homo sapiens [11])
1 | CC[C@H](C)[C@@H]1NC(=O)[C@H](Cc2ccc(O)cc2)NC(=O)[C@H](Cc2cnc[nH]2)NC(=O)[C@H](CCCNC(=N)N)NC(=O)CCCCCNC(=O)[C@H](CCCCN)NC(=O)[C@H](CO)NC(=O)[C@@H](NC(=O)[C@@H](N)Cc2ccc(O)cc2)CCC(=O)NCCCC[C@@H](C(=O)N[C@H](C(=O)N[C@H](C(=O)N[C@@H](CCCNC(=N)N)C(=O)N[C@@H](CCC(N)=O)C(=O)N[C@@H](CCCNC(=N)N)C(=O)N[C@@H](Cc2ccc(O)cc2)C(=O)O)[C@@H](C)O)[C@@H](C)CC)NC(=O)[C@H](CC(N)=O)NC1=O (H-YESK[Ahx]RHYINKITRQRY-OH; lactam 2-11) | 500 | 2 | 25 | 630 | > 1000 | 7.6 | > 1000 | 500 | < 6 | < 6 |  | 250 | 13 | 320
2 | CC[C@H](C)[C@@H]1NC(=O)[C@@H](NC(=O)[C@@H](N)Cc2ccc(O)cc2)CCC(=O)NCCCC[C@@H](C(=O)N[C@H](C(=O)N[C@H](C(=O)N[C@@H](CCCNC(=N)N)C(=O)N[C@@H](CCC(N)=O)C(=O)N[C@@H](CCCNC(=N)N)C(=O)N[C@@H](Cc2ccc(O)cc2)C(=O)O)[C@@H](C)O)C(C)C)NC(=O)[C@H](CC(N)=O)NC(=O)[C@H](CC(C)C)NC(=O)[C@H](Cc2ccc(O)cc2)NC(=O)[C@H](Cc2cnc[nH]2)NC(=O)[C@H](CCCNC(=N)N)NC(=O)CCCCCNC(=O)[C@H](CCCCN)NC1=O | 1300 | 1.3 | 50 | 790 | > 1000 | 2 | > 1000 | 400 | < 6 | < 6 |  | 1000 | 39 | 610
3 | CC[C@H](C)[C@H](NC(=O)[C@H](Cc1ccc(O)cc1)NC(=O)[C@H](Cc1c[nH]cn1)NC(=O)[C@H](CCCN=C(N)N)NC(=O)CCCCCNC(=O)[C@H](CCCCN)NC(=O)[C@H](CO)NC(=O)[C@@H]1CCCN1C(=O)[C@@H](N)Cc1ccc(O)cc1)C(=O)N[C@@H](CC(N)=O)C(=O)N[C@@H](CC(C)C)C(=O)N[C@H](C(=O)N[C@H](C(=O)N[C@@H](CCCN=C(N)N)C(=O)N[C@@H](CCC(N)=O)C(=O)N[C@@H](CCCN=C(N)N)C(=O)N[C@@H](Cc1ccc(O)cc1)C(=O)O)[C@@H](C)O)[C@@H](C)CC (H-YPSK[Ahx]RHYINLITRQRY-OH) |  |  |  |  |  |  |  |  |  |  |  | 31 | 15 | 100
4 | CC[C@H](C)[C@@H]1NC(=O)[C@H](CC(C)C)NC(=O)[C@H](CC(N)=O)NC(=O)[C@@H](NC(=O)[C@H](Cc2ccc(O)cc2)NC(=O)[C@H](Cc2cnc[nH]2)NC(=O)[C@H](CCCNC(=N)N)NC(C)=O)CCC(=O)NCCCC[C@@H](C(=O)N[C@@H](CCCNC(=N)N)C(=O)N[C@@H](CCC(N)=O)C(=O)N[C@@H](CCCNC(=N)N)C(=O)N[C@@H](Cc2ccc(O)cc2)C(=O)O)NC1=O (Ac-RHYENLIKRQRY-OH; lactam 4-8) | > 10000 | 79 | 1600 | 5000 |  |  |  |  |  |  | < 5 | > 130 | 20 | 63

More lines, in order of falling Ki [1], values ahead:

Row | Ki [1] [nM] | Ki [2] [nM] | Ki [3] [nM] | Ki [4] [nM] | EC50 [5] [nM] | EC50 [6] [nM] | EC50 [7] [nM] | EC50 [8] [nM] | pEC50 [5] | pEC50 [7] | pKi ([1]; bhk-21) | SMILES | Ratio Ki (Homo sapiens [9]) | Ratio Ki (Homo sapiens [10]) | Ratio Ki (Homo sapiens [11])
5 | 400 | 13 | 200 | 1300 |  |  |  |  |  |  |  | CC[C@H](C)[C@H](NC(=O)[C@H](Cc1ccc(O)cc1)NC(=O)[C@H](Cc1cnc[nH]1)NC(=O)[C@H](CCCNC(=N)N)NC(=O)CCCCCNC(=O)[C@H](CCCCN)NC(=O)[C@H](CO)NC(=O)[C@@H]1CCCN1C(=O)[C@@H](N)Cc1ccc(O)cc1)C(=O)N[C@@H](CC(N)=O)C(=O)N[C@@H](CC(C)C)C(=O)N[C@H](C(=O)N[C@H](C(=O)N[C@@H](CCCNC(=N)N)C(=O)N[C@@H](CCC(N)=O)C(=O)N[C@@H](CCCNC(=N)N)C(=O)N[C@@H](Cc1ccc(O)cc1)C(=O)O)[C@@H](C)O)[C@@H](C)CC (H-YPSK[Ahx]RHYINLITRQRY-OH) |  |  | 
6 | 40 | 6.3 | 0.1 | 1.3 | 16 | 16 | 0.2 | 6.3 |  |  |  | CC[C@H](C)[C@H](NC(=O)[C@H](Cc1ccc(O)cc1)NC(=O)[C@H](CCCNC(=N)N)NC(=O)[C@H](CCCNC(=N)N)NC(=O)[C@H](CC(C)C)NC(=O)[C@H](CC(=O)O)NC(=O)[C@H](C)NC(=O)[C@H](C)NC(=O)[C@H](Cc1ccc(O)cc1)NC(=O)[C@H](CCC(N)=O)NC(=O)[C@H](C)NC(=O)[C@H](CCSC)NC(=O)[C@H](CCC(N)=O)NC(=O)[C@H](CCC(=O)O)NC(=O)[C@@H]1CCCN1C(=O)[C@@H](NC(=O)[C@H](C)NC(=O)[C@H](CC(N)=O)NC(=O)[C@H](CC(=O)O)NC(=O)CNC(=O)[C@@H]1CCCN1C(=O)[C@H](Cc1ccc(O)cc1)NC(=O)[C@@H](NC(=O)[C@@H]1CCCN1C(=O)[C@H](CCC(=O)O)NC(=O)[C@H](CC(C)C)NC(=O)[C@@H]1CCCN1C(=O)[C@H](C)N)C(C)C)[C@@H](C)O)C(=O)N[C@@H](CC(N)=O)C(=O)N[C@@H](CCSC)C(=O)N[C@@H](CC(C)C)C(=O)N[C@H](C(=O)N[C@@H](CCCNC(=N)N)C(=O)N[C@@H](CCC(N)=O)C(=O)N[C@@H](CCCNC(=N)N)C(=O)N[C@@H](Cc1ccc(O)cc1)C(=O)O)[C@@H](C)O | 6.3 | 0.02 | 0.21
